PMC11173677, “Identification and Evaluation of Olive Phenolics in the Context of Amine Oxidase Enzyme Inhibition and Depression: In Silico Modelling and In Vitro Validation” (Molecules, 2024)

Experiments:
[1] = system: MAO-B; set-up: method as in PMID 30809547; settings: cited from earlier work
[2] = system: MAO-A; set-up: method as in PMID 30809547; settings: cited from earlier work
[3] = target: MAO-A; set-up: method as in PMID 17915852; settings: read-out: inhibition constant, MAO-A; cited from earlier work
[4] = target: MAO-B; set-up: method as in PMID 17915852; settings: read-out: inhibition constant, MAO-B; cited from earlier work
[5] = system: T1, LSD1; assay: LSD1 activity in nuclear extracts of BJ cells stimulated with DEX; assay type: cell-based, human; settings: DEX 50 μM 72 h, then TCP 5 μM or OLP, HT, HTA 50 μM for 48 h
T1 construct: nuclear proteins extracted from the BJ cultures were directly assayed for LSD1 activity; endogenous in cells; host or cells: BJ human foreskin fibroblasts (nuclear extract, DEX-stimulated)
Description: Histone demethylase LSD1 activity assay
4µL of nuclear extracts containing 5µg protein was added to designated strip wells with stably
captured LSD1 substrate (H3K4me2), followed by an additional 26µL of H3K4me2 (HG3)
substrate diluted in assay buffer (HG2). In no enzyme control wells, the 4µL of nuclear
extracts was replaced with 4µL of assay buffer. Blank wells contained 30µL of assay buffer.
A standard curve was generated by adding 1µL of standard (HG4) at incrementally increasing
concentrations (0.1-10ng/µL) to 29µL of assay buffer in designated standard wells. After all
wells were loaded appropriately, the assay plate was incubated away from light at room
temperature for 60 minutes. Following incubation, contents were aspirated and wells were
washed three times with 150µL of wash buffer (HG1). 50µL of capture antibody (HG5)
diluted at a 1:1000 ratio was then added to all wells before incubating at room temperature
for 60 minutes on a rotating platform. Well contents were then aspirated and washed four
times with 150µL of wash buffer. 50µL of detection antibody (HG6) diluted at a 1:1000 ration
was then added to each well. Assay plate was then incubated for a final time at room
temperature for 30 minutes. Well contents were aspirated again, followed by six washes with
150µL wash buffer. 50µL of fluoro-developer (HG7) was then added into each well and
allowed to develop away from light for 1-5 minutes. Fluorescence was then read on a
CLARIOstar Microplate Reader (BMG Labtech, Ortenberg Germany) at Ex/Em =

[6] = system: T2, MAO-A; assay: MAO-A activity assay in hESC-derived neurons stimulated with ATRA; assay type: cell-based, human; settings: 1 μM ATRA 24 h, then TCP 5 μM, OLC 50 μM or OLP 50 μM for 24 h
T2 construct: endogenous in cells; host or cells: BJ human foreskin fibroblasts stimulated with DEX or HC
Description: (§1) An in vitro model of MDD was designed for stem cell-derived neuronal cells through incubation of 1 μM all-trans retinoic acid (Sigma-Aldrich PHR1187, St. Louis, MO, USA). All cell treatments were conducted in duplicate and replicated using independently differentiating neuronal plates.
(§2) Activity assays were commercially sourced from BioVision (Abcam, BioVision ab241031, Waltham, MA, USA) and were performed according to manufacturer’s instructions. The treatment groups were plated in duplicate on a black, flat 96-well microplate. The cells were homogenised in assay buffer using a microtube mixer at 4 °C and centrifuged at 10,000× g for 10 min. A Bradford assay was performed to determine the total protein concentration within each cell pellet (200 μg/well for BJ cells, 40 μg/well for hESC-derived neurons). Approximately 40 μL of supernatant was loaded into wells along with 10 μL of either […], or assay buffer for total MAO activity. A H2O2 standard was pipetted as supplied and 50 μL of reaction mix was pipetted into all wells. Using a CLARIOstar Plus Microplate Reader, (BMG Labtech, Ortenberg, Germany), fluorescence was measured kinetically at 25 °C for 60 min with Ex/Em = 535/587 nm.

[7] = system: T3, MAO-B; assay: MAO-B activity assay in hESC-derived neurons stimulated with ATRA; assay type: cell-based, human; settings: 1 μM ATRA 24 h, then TCP 5 μM, OLC 50 μM or OLP 50 μM for 24 h
T3 construct: endogenous in cells; host or cells: BJ human foreskin fibroblasts stimulated with DEX or HC
Description: as §1, §2

[8] = system: total MAO; assay: Total MAO activity assay in hESC-derived neurons stimulated with ATRA; assay type: cell-based, human; settings: 1 μM ATRA 24 h, then TCP 5 μM, OLC 50 μM or OLP 50 μM for 24 h
Description: as §1, §2

[9] = target: T4, purified MAO-B (Homo sapiens, UniProt P27338); assay: MAO-B direct screening assay (inhibitor screening kit); assay type: biochemical; settings: purified enzyme; read-out: IC50, inhibition of MAO-B
T4 construct: purchased Sigma-Aldrich MAK296
T4 sequence (P27338 1-520): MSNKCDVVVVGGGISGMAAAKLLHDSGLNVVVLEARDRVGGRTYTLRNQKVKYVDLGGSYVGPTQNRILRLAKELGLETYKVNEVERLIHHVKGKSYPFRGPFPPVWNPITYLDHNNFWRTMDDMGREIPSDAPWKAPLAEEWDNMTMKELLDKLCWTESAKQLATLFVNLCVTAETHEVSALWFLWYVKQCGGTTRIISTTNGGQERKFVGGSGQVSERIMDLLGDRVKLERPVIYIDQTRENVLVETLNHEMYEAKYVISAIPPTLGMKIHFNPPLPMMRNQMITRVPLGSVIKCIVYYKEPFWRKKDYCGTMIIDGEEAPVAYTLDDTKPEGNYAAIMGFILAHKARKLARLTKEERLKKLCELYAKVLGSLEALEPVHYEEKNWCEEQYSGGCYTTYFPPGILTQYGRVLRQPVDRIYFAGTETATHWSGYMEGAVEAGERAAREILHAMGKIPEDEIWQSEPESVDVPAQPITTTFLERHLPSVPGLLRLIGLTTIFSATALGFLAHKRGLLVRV
Description: (§3) The assays were conducted for MAO-A and MAO-B according to the manufacturer’s instructions.

[10] = target: purified LSD1 (Homo sapiens, UniProt O60341); assay: LSD1 direct screening assay (Epigentek inhibitory screening kit); assay type: biochemical; settings: direct incubation with purified LSD1, Epigentek kit; read-out: IC50, inhibition of LSD1
Description: Fluorescence was measured using a CLARIOstar Plus Microplate Reader (BMG Labtech, Ortenberg, Germany) at excitation and emission wavelengths of 530 nm and 590 nm, respectively (Ex/Em = 530/590 nm).

[11] = system: H3K4 mono-methylation; assay: H3K4 mono-methylation in BJ cells (Western blotting); assay type: cell-based, human; settings: 50 μM, 48 h, compared to untreated cells; effects more pronounced with DEX
Description: As described in the Supplementary Information, nuclear proteins extracted from the BJ cultures were directly assayed for LSD1 activity (Epigentek P-3076, Farmingdale, NY, USA). Fluorescence was read on a CLARIOstar Microplate Reader (BMG Labtech, Ortenberg, Germany) at Ex/Em = 530/590 nm (Figure S4). Histone proteins were extracted from the treated cultures and were analysed through Western blotting. The mono-methylation status of lysine on histone 3 (H3K4) was determined via immunodetection (Table S6).
100µL of Nuclear Extraction Buffer containing 0.2µL 1M DTT and 0.4µL PIC was then added to the remaining nuclei-containing pellets. Full resuspension was achieved through multiple rounds of vigorous vortexing and ice incubations (to maintain protein integrity). Once the entire pellet was visibly resuspended in NEB, tubes were centrifuged at 16,000g for 10 minutes. The resulting supernatant containing the nuclear extract fraction was transferred to clean 0.5mL tubes and stored at -80°C.
Acid extraction of histone proteins
Cells were washed in 10mL of pre-chilled PBS (1X) and detached from flask surface via mechanical disruption using a cell scraper. Cell solution was then transferred into a 15mL tube and centrifuged at 150g for 10 minutes. Supernatant was then discarded and the remaining cell pellet resuspended in 0.5mL PBS (1X) and transferred into a 1.5mL microcentrifuge tube. Cells were then centrifuged at 9400g for 20 seconds, after which the supernatant was removed and discarded. The remaining pellet was then briefly resuspended in 600µL of acid extraction lysis buffer (10mM KCl, 10mM HEPES, […]) containing cOmplete™ Mini Protease Inhibitor Cocktail (Sigma-Aldrich, Roche 11836153001, MO USA) and 0.3µL 1M DTT. This will cause cells to pre-swell, resulting in a reduced amount of PBS (1X) remaining in the microcentrifuge tube that may deter maximal cell lysis capacity. Cells were then centrifuged at 9400g for 20 seconds with the resultant supernatant aspirated and discarded. […]

[12] = target: T5, LSD1 (Homo sapiens, UniProt O60341); assay: LSD1 fluorescence coupling enzyme assay (Reaction Biology Corporation); assay type: biochemical; settings: Reaction Biology Corp., 30 min pre-incubation, 10 μM histone H3(1-21)K4me2 peptide substrate; read-out: IC50, LSD1 demethylase activity
T5 construct: Reaction Biology Corporation (performed the assay)
Description: The inhibitory activity of HCl 489479, OLC, and OLP was measured using a fluorescence coupling enzyme assay (performed by Reaction Biology Corporation). […] All compounds were pre-incubated for 30 min with the enzyme before the addition of 10 μM histone H3(1-21)K4me2 peptide substrate to start the reaction. Fluorescence was measured using an EnVision Multimode Plate Reader at Ex/Em = 535/590.

[13] = target: T6, purified MAO-A (Homo sapiens, UniProt P21397); assay: MAO-A direct screening assay (inhibitor screening kit); assay type: biochemical; settings: purified enzyme; read-out: IC50, inhibition of MAO-A
T6 construct: purchased Sigma-Aldrich MAK295
T6 sequence (P21397 1-527): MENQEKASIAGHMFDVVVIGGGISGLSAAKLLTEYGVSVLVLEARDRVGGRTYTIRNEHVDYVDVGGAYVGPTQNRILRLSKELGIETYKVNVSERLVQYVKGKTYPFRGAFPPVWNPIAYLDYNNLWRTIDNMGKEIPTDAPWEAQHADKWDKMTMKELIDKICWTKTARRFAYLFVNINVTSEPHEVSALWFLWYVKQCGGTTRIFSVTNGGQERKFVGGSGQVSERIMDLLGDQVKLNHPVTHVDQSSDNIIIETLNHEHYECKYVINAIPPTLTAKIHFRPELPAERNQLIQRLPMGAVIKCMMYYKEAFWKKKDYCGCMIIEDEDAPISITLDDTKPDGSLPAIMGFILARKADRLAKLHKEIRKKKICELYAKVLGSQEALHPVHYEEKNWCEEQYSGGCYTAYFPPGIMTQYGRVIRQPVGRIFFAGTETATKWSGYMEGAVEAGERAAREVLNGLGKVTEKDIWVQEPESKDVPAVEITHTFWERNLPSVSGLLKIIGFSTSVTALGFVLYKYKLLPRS
Description: as §3

[14] = system: human skin fibroblasts; set-up: method as in PMID 37432217; settings: in comparison to untreated controls, at certain doses; cited from earlier work

Which IC50 [1] does the source give for `Oc1ccc(/C=C/c2cc(O)cc(O)c2)cc1` [resveratrol] here?
Its IC50 is 15800 nM.

What about the IC50 [2] of the same molecule?
The IC50 was 313 nM.

What does the source list for `CNCc1cc(=O)oc2cc(OCc3cccc(Cl)c3)ccc12` [7-(3-chlorobenzyloxy)-4-(methylamino)methyl-coumarin]?
Ki [3]: 15700 nM; Ki [4]: 100 nM

Which IC50 [1] does the source give for isoeugenol here?
Its IC50 is 102000 nM.

Which results are given for `N[C@@H]1C[C@H]1c1ccccc1` (racemic) [TCP, tranylcypromine, reference compound]?
LSD1 activity in BJ cultures stimulated with DEX [5]: significant reduction; MAO-A activity in hESC-derived neurons [6]: significantly reduced; MAO-B activity in hESC-derived neurons [7]: significantly reduced; total MAO activity in hESC-derived neurons [8]: significantly reduced

What does the source list for `CC(=O)OCCc1ccc(O)c(O)c1` [HTA, hydroxytyrosol acetate]?
IC50 [9]: 91400 nM; LSD1 activity in BJ cultures stimulated with DEX [5]: significant reduction; IC50 [10]: 1100 nM; baseline levels of H3K4 mono-methylation in BJ cells [11]: increased; IC50 [12]: 31 nM; IC50 [13]: 700 nM

Which IC50 [1] does the source give for `COc1cc(/C=C/c2ccc(O)cc2)cc(OC)c1` [pterostilbene] here?
Its IC50 is 138 nM.

And the IC50 [2]?
Its IC50 is 13400 nM.

Which results are given for `OCCc1ccc(O)c(O)c1` [HT, hydroxytyrosol]?
LSD1 activity in BJ cultures stimulated with DEX [5]: significant reduction; IC50 [10]: 39 nM; baseline levels of H3K4 mono-methylation in BJ cells [11]: increased; IC50 [12]: 570 nM; IC50 [13]: 430 nM; growth capacity of human skin fibroblasts [14]: significantly increased

For `O=Cc1cc(=O)oc2cc(OCc3cccc(Cl)c3)ccc12` [7-(3-chlorobenzyloxy)-4-carboxaldehyde-coumarin], which Ki [3] is on record?
Its Ki is 11000 nM.

And the Ki [4]?
The Ki was 400 nM.
